Consider 28 molecules from PubChem BioAssay AID330 (DTP/NCI, 2004).

Structures are written as SMILES. “And” between values parts separate entries of the source, which are not always exact repeats. Equal entries are not always repeated. Toxic doses and inconclusive results are not listed.

For the experiment, the system named is P388 leukemia ip, CD2F1 mice, survival T/C. Put plainly: NCI In Vivo Anticancer Drug Screen. Data for tumor model P388 Leukemia (intraperitoneal) in CD2F1 (CDF1) mice. Conditions: endpoint: median survival time, higher = longer survival. In a few lines:
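Mice carrying the transplanted tumor received test compound or vehicle. Survival was recorded in each group, and the value is the treated-group measurement divided by that of the vehicle-treated control group.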

Where [1] appears, read: dose: 50.0 mg/kg/injection, schedule: Q01DX009 (ip), vehicle: Klucel (hydroxypropylcellulose) (HPC).
[2] abbreviates: dose: 100.0 mg/kg/injection, schedule: Q01DX009 (ip), vehicle: Klucel (hydroxypropylcellulose) (HPC).
Where [3] appears, read: dose: 200.0 mg/kg/injection, schedule: Q01DX009 (ip), vehicle: Klucel (hydroxypropylcellulose) (HPC).
The mark [4] stands for this setting: dose: 50.0 mg/kg/injection, schedule: Q01DX005 (ip), vehicle: Klucel (hydroxypropylcellulose) (HPC).
Where [5] appears, read: dose: 100.0 mg/kg/injection, schedule: Q01DX005 (ip), vehicle: Klucel (hydroxypropylcellulose) (HPC).
[6] abbreviates: dose: 200.0 mg/kg/injection, schedule: Q01DX005 (ip), vehicle: Klucel (hydroxypropylcellulose) (HPC).
Setting [7] is: dose: 100.0 mg/kg/injection, schedule: Q04DX002 (ip), vehicle: Klucel (hydroxypropylcellulose) (HPC).
Where [8] appears, read: dose: 200.0 mg/kg/injection, schedule: Q04DX002 (ip), vehicle: Klucel (hydroxypropylcellulose) (HPC).
Setting [9] is: dose: 60.0 mg/kg/injection, schedule: Q01DX005 (ip), vehicle: saline with Tween-80.
[10] abbreviates: dose: 120.0 mg/kg/injection, schedule: Q01DX005 (ip), vehicle: saline with Tween-80.
Setting [11] is: dose: 240.0 mg/kg/injection, schedule: Q01DX005 (ip), vehicle: saline with Tween-80.
The mark [12] stands for this setting: dose: 100.0 mg/kg/injection, schedule: Q04DX003 (ip), vehicle: saline.
Setting [13] is: dose: 50.0 mg/kg/injection, schedule: Q01DX005 (ip), vehicle: saline with Tween-80.
[14] abbreviates: dose: 100.0 mg/kg/injection, schedule: Q01DX005 (ip), vehicle: saline with Tween-80.
Setting [15] is: dose: 6.25 mg/kg/injection, schedule: Q01DX005 (ip), vehicle: Klucel (hydroxypropylcellulose) (HPC).
[16] abbreviates: dose: 12.5 mg/kg/injection, schedule: Q01DX005 (ip), vehicle: Klucel (hydroxypropylcellulose) (HPC).
Where [17] appears, read: dose: 25.0 mg/kg/injection, schedule: Q01DX005 (ip), vehicle: Klucel (hydroxypropylcellulose) (HPC).
The mark [18] stands for this setting: dose: 25.0 mg/kg/injection, schedule: Q01DX009 (ip), vehicle: saline.
The mark [19] stands for this setting: dose: 50.0 mg/kg/injection, schedule: Q01DX009 (ip), vehicle: saline.
The mark [20] stands for this setting: dose: 100.0 mg/kg/injection, schedule: Q01DX009 (ip), vehicle: saline.

Take `CN1C(=O)C2C3C=CC(C2C1=O)C1C2C(=O)N(C)C(=O)C2C31` (stereo not drawn): the T/C was 100 % of control (dose: 25.0 mg/kg/injection, schedule: Q01DX009 (ip), vehicle: Klucel (hydroxypropylcellulose) (HPC)); 108 % of control under setting [1]; 111 % of control under setting [2]; 104 % of control and 111 % of control under setting [3].

Consider `N#CCCN(N)S(=O)(=O)c1ccccc1`, for which the T/C is 99 % of control under setting [4], 99 % of control under setting [5] and 98 % of control under setting [6].

Regarding `CCn1c(=O)oc2ccc(Br)cc21`, the T/C reads like this: under setting [7], 100 % of control; under setting [8], 98 % of control; (dose: 400.0 mg/kg/injection, schedule: Q04DX002 (ip), vehicle: Klucel (hydroxypropylcellulose) (HPC)) 104 % of control.

Regarding `COc1cc(/C=N/NC(=O)c2cc(OC)c(OC)c(OC)c2)ccc1O`, the T/C was 99 % of control under setting [9], 101 % of control under setting [10] and 95 % of control under setting [11].

On to `CC1(C)N=C(N)N=C(N)N1c1ccc(CNC(=O)Nc2ccc(S(=O)(=O)F)cc2)cc1`, for which the T/C was 172 % of control under setting [12]; 181 % of control (dose: 200.0 mg/kg/injection, schedule: Q04DX003 (ip), vehicle: saline); 90 % of control (dose: 400.0 mg/kg/injection, schedule: Q04DX003 (ip), vehicle: saline).

Regarding `OCC1OC(O)C2OCCOCCOC3C(O)C(CO)OC(O)C3OCCOCCOC2C1O` (stereo not drawn), the T/C is, setting by setting: (dose: 60.0 mg/kg/injection, schedule: Q01DX005 (ip), vehicle: saline) 101 % of control; (dose: 120.0 mg/kg/injection, schedule: Q01DX005 (ip), vehicle: saline) 95 % of control; (dose: 240.0 mg/kg/injection, schedule: Q01DX005 (ip), vehicle: saline) 97 % of control.

Regarding `N#CC(NCc1ccccc1)c1ccccc1` (stereo not drawn), the T/C under setting [9] was 99 % of control and the T/C under setting [10] is 100 % of control.

As for `OP12(OC(C(F)(F)F)(C(F)(F)F)c3ccccc31)OC(C(F)(F)F)(C(F)(F)F)c1ccccc12`, the T/C under setting [7] is 97 % of control and the T/C under setting [8] is 98 % of control.

In the case of `O=C(Nc1ccccc1-c1ccccc1)C(=O)Nc1ccccc1-c1ccccc1`, the T/C under setting [13] is 90 % of control and the T/C under setting [14] was 89 % of control.

For the molecule `c1ccc(C2=C(c3ccccc3)C3SC4CCCC3C4(N3CCOCC3)S2)cc1` (stereo not drawn), the T/C is 95 % of control (dose: 100.0 mg/kg/injection, schedule: Q01DX001 (ip), vehicle: Klucel (hydroxypropylcellulose) (HPC)); 99 % of control (dose: 200.0 mg/kg/injection, schedule: Q01DX001 (ip), vehicle: Klucel (hydroxypropylcellulose) (HPC)); 93 % of control (dose: 400.0 mg/kg/injection, schedule: Q01DX001 (ip), vehicle: Klucel (hydroxypropylcellulose) (HPC)).

For the molecule `CCc1nc(N)nc(N)c1-c1ccc([N+](=O)[O-])c(Cl)c1`, the T/C is, setting by setting: under setting [14], 152 % of control; (dose: 200.0 mg/kg/injection, schedule: Q01DX005 (ip), vehicle: saline with Tween-80) 93 % of control.

`O=C1C(C(=Nc2ccc3ccccc3c2)c2ccccc2)=C(O)c2ccccc21`: the T/C is, setting by setting: (dose: 25.0 mg/kg/injection, schedule: Q04DX002 (ip), vehicle: saline with Tween-80) 100 % of control; (dose: 50.0 mg/kg/injection, schedule: Q04DX002 (ip), vehicle: saline with Tween-80) 102 % of control; (dose: 100.0 mg/kg/injection, schedule: Q04DX002 (ip), vehicle: saline with Tween-80) 89 % of control.

For the molecule `CC(C)(C)OC(=O)NC(CO)C(=O)O` (stereo not drawn), the T/C (dose: 50.0 mg/kg/injection, schedule: Q01DX009 (ip), vehicle: saline with Tween-80) is 96 % of control; the T/C (dose: 100.0 mg/kg/injection, schedule: Q01DX009 (ip), vehicle: saline with Tween-80) was 96 % of control; the T/C (dose: 200.0 mg/kg/injection, schedule: Q01DX009 (ip), vehicle: saline with Tween-80) was 99 % of control.

With `C=C1C(=O)OC2/C=C(\CO)CC/C=C(/C=O)CC(O)C12` (stereo not drawn), the T/C is 101 % of control (dose: 1.89 mg/kg/injection, schedule: Q01DX005 (ip), vehicle: saline); 101 % of control (dose: 3.75 mg/kg/injection, schedule: Q01DX005 (ip), vehicle: saline); 99 % of control (dose: 7.5 mg/kg/injection, schedule: Q01DX005 (ip), vehicle: saline); 96 % of control (dose: 15.0 mg/kg/injection, schedule: Q01DX005 (ip), vehicle: saline).

Consider `O=C1C=C(NCCCC2CCCN3CCCCC23)C(=O)c2ccccc21` (stereo not drawn), for which the T/C under setting [15] is 95 % of control, the T/C under setting [16] is 98 % of control and the T/C under setting [17] was 98 % of control.

Regarding `Nc1ccc(N)c(N)n1`, the T/C reads like this: (dose: 6.25 mg/kg/injection, schedule: Q01DX009 (ip), vehicle: saline) 95 % of control; (dose: 12.5 mg/kg/injection, schedule: Q01DX009 (ip), vehicle: saline) 104 % of control; under setting [18], 100 % of control.

For the molecule `CCOC(=O)C1=C(C(=O)c2ccccc2)C(c2ccccc2[N+](=O)[O-])C(C(=O)c2ccccc2)=C(C(=O)OCC)N1`, the T/C under setting [9] was 101 % of control and the T/C under setting [10] is 98 % of control.

Regarding `CC1C(C#N)C(=O)NC(=O)C1C#N` (stereo not drawn), the T/C runs as follows: under setting [19], 99 % of control; under setting [20], 100 % of control; (dose: 200.0 mg/kg/injection, schedule: Q01DX009 (ip), vehicle: saline) 100 % of control.

On to `O=C(O)CC(O)(CC(=O)O)C(=O)O.O=C(O)CC(O)(CC(=O)O)C(=O)O.[O]=[Mo]1[O][Mo](=[O])[O]1`, for which the T/C under setting [18] is 93 % of control.

Take `CN(Cc1ccccc1)C(=O)Nc1c(Cl)cccc1Cl`: the T/C runs as follows: under setting [9], 103 % of control; under setting [10], 99 % of control; under setting [11], 95 % of control.

Regarding `CC(CO)(CO)N(CCO)CCO`, the T/C is, setting by setting: (dose: 50.0 mg/kg/injection, schedule: Q01DX005 (ip), vehicle: saline) 101 % of control; (dose: 100.0 mg/kg/injection, schedule: Q01DX005 (ip), vehicle: saline) 101 % of control; (dose: 200.0 mg/kg/injection, schedule: Q01DX005 (ip), vehicle: saline) 99 % of control.

Consider `CCOC(=O)/C=C/c1c[nH]c(C(=O)OCC)c1`, for which the T/C runs as follows: under setting [1], 93 % of control; under setting [2], 91 % of control; under setting [3], 93 % of control; (dose: 400.0 mg/kg/injection, schedule: Q01DX009 (ip), vehicle: Klucel (hydroxypropylcellulose) (HPC)) 108 % of control.

For the molecule `CN(C)c1ccc(C(=O)C2CCCC(C)(C)C2)cc1` (stereo not drawn), the T/C is 98 % of control (dose: 100.0 mg/kg/injection, schedule: Q04DX003 (ip), vehicle: Klucel (hydroxypropylcellulose) (HPC)); 99 % of control (dose: 200.0 mg/kg/injection, schedule: Q04DX003 (ip), vehicle: Klucel (hydroxypropylcellulose) (HPC)); 91 % of control (dose: 400.0 mg/kg/injection, schedule: Q04DX003 (ip), vehicle: Klucel (hydroxypropylcellulose) (HPC)).

Take `COC(=O)C(NC(=O)C(CO)N1C(=O)c2ccccc2C1=O)c1ccccc1` (stereo not drawn): the T/C under setting [13] is 99 % of control and the T/C under setting [14] was 98 % of control.

`CN1[C@@H](CC(=O)c2ccccc2)CCC[C@H]1CC(=O)c1ccccc1`: the T/C reads like this: under setting [18], 95 % of control; under setting [19], 103 % of control; under setting [20], 102 % of control.

In the case of `CC1(C)N=C(N)N=C(N)N1c1ccc(OCc2ccc(C(=O)Nc3cccc(S(=O)(=O)F)c3)cc2)c(Cl)c1`, the T/C by setting is: (dose: 50.0 mg/kg/injection, schedule: Q04DX003 (ip), vehicle: saline) 181 % of control; under setting [12], 86 % of control.

As for `O=C(NCCF)Oc1ccc([N+](=O)[O-])cc1`, the T/C is 106 % of control under setting [15]; 113 % of control and 115 % of control under setting [16]; 121 % of control and 122 % of control under setting [17].

Consider `C(=NCCC[Si]12OCCN(CCO1)CCO2)c1ccco1`, for which the T/C is, setting by setting: under setting [4], 113 % of control; under setting [5], 105 % of control; under setting [6], 105 % of control.
